# Laboratory results published in patent US20040219189A1 (priority 2001, published 2004).
# Key:
# kainate receptors = settings: Narita et al. 1993; cited from earlier work
# [1] = tested on: ventromedial nucleus of hypothalamus (VMH) of rat; settings: VMH stimulated by water absorbent polymers, Yokawa et al. 1990; cited from earlier work
# Arbor Acres broilers = test: Fattening of broilers with feed containing GABA (day 21 to day 41 after birth); assay type: in vivo; settings: for increase in the body weight per 1 kg of feed during day 21 to day 41 after birth: compared to 0% group (p<0.05), FIG. 2; for increase in the body weight from day 21 to day 41 after birth: FIG. 1
compound,measurement,setting,value
"O=C1N=c2cc([N+](=O)[O-])c([N+](=O)[O-])cc2=NC1=O [DNQX, 6,7-dinitroquinoxaline-2,3-dione]",inhibition of kainate-induced running activity in rat,kainate receptors,inhibited
"NCCCC(=O)O [GABA, γ-aminobutyric acid]",induction of rat running activity caused by polymers,[1],inhibited
same,increase in the body weight per 1 kg of feed during day 21 to day 41 after birth,Arbor Acres broilers; 0.5% GABA additive rate,significant increase
same,increase in the body weight from day 21 to day 41 after birth,Arbor Acres broilers; 0.5% additive rate of GABA in feed,tendency of increase was also observed at 0.5% but the significant difference was not clearly observed
same,increase in the body weight per 1 kg of feed during day 21 to day 41 after birth,Arbor Acres broilers; 1% GABA additive rate,significant increase
same,increase in the body weight from day 21 to day 41 after birth,Arbor Acres broilers; 1% additive rate of GABA in feed,maximum increase
same,increase in the body weight per 1 kg of feed during day 21 to day 41 after birth,Arbor Acres broilers; 3% GABA additive rate,significant increase
C=C(C)[C@H]1CN[C@H](C(=O)O)[C@H]1CC(=O)O [kainate],running activity in rat,kainate receptors,induced
